The source of these data is PMC11984905, “Chiral Switch of Gadopiclenol: New Standards in MRI Probes” (Advanced Science, 2025).

The nature of data set [1]: 1H NMRD profiles and 17O NMR relaxometry in water. Conditions: for q: number of coordinated water molecules. Type of data set: physicochemical. Here is the method:
The magnetic‐field dependence of the longitudinal relaxation rate of water protons (^1H NMRD) were measured in aqueous solution by using a variable field relaxometer equipped with an HTS‐110 3T Metrology Cryogen‐free Superconducting Magnet (Mede, Italy), operating in the overall range of proton Larmor frequencies of 20–120 MHz (0.47–3.00 T). The measurements were performed using the standard inversion recovery sequence (20 experiments, 3 scans) with a 90° pulse width of 3.5 µs. The temperature was controlled with a Stelar VTC‐91 heater airflow. Additional points in the 0.01–10 MHz frequency range were collected on a Fast‐Field Cycling (FFC) Stelar SmarTracer Relaxometer. T 1 values at 500 MHz were collected on a Bruker Avance III NMR spectrometer operating at 11.7 T. The concentration of Gd^3+ in the solutions was determined by using bulk magnetic susceptibility (BMS) shift measurements performed at 11.7 T. For the measurements in the biological fluid, lyophilized plasma matrix (Siemens Healthcare) was added to 1 mL of [Gd(ent‐L2)] (1.0 mM) or Seronorm (Sero) was solubilized in 5 mL [Gd(ent‐L2)] (1.0 mM) solution. ^1H NMRD of the final solution was measured at 310 K.
The spectra were acquired on a Bruker Avance III spectrometer (11.7 T) using a 5 mm probe under temperature control. An aqueous solution of the complexes ([GdL] = 10–15 mM) was enriched to ca. 2.0% of the ^17O isotope (Cambridge Isotope). The transverse relaxation rates (R 2) were measured as a function of temperature in the 278−350 K range. The simultaneous fit of ^1H NMRD and ^17O NMR profiles data was performed using the Micromath Scientist software (version 2.0, Salt Lake City, UT, USA).

For data set [2] the following is noted: 25 °C, cited from earlier work.
The nature of data set [3]: Kinetic inertness: dissociation of Gd(III)-complexes in 0.01–1.0 M HCl followed by HPLC. The note with it: for k d at pH = 7.4: dissociation rate calculated at pH 7.4, 25 °C; for k1: proton-assisted dissociation, [H+]≤0.15 M: [Na+]+[H+]=0.15 M. It is filed as physicochemical. The text has this: The kinetic inertness of the Gd(III)‐complexes with the different isomers formed by rac‐L1 and rac‐L2 was characterized by the rates of the dissociation reactions taking place in 0.01–1.0 M HCl solution. The dissociation reactions were followed by measuring the integral values of the Gd(III)‐complexes with the different isomers of rac‐L1 and rac‐L2 ligands with HPLC. The conditions of the HPLC experiments for the kinetic studies of the Gd(III)‐complexes with rac‐L1 and rac‐L2 ligands are summarized in Tables S1 and S2 (Supporting Information), respectively. The samples were kept at 25 °C in a well‐closed vessel. For the HPLC analysis, 100 µL samples were withdrawn from the solutions. The measurements were performed with 0.2 mM solution of Gd(III)‐complexes. The pseudo‐first‐order rate constants (k d) were calculated by fitting the HPLC integral – t data pairs to Equation (1). (1) At=Ar−Ave^−kdt+Av where A r, A v, and A t are the integral values of the reactants, the product, and reaction time t. The temperature was maintained at 25 °C and the ionic strength of the solutions was kept constant at [H^+]≤0.15 M, [HCl]+[NaCl] = 0.15 M. The calculation of the kinetic parameters was performed by the fitting of the absorbance – time and relaxation rate – time data pairs with the Micromath Scientist computer program (version 2.0, Salt Lake City, UT, USA).
The dissociation reactions of Gd(III)-complexes with the different isomers formed by rac-L1 and rac-L2 have been studied by HPLC method (Tables S1 and S2) at 25 °C in 0.01 – 1.0 M HCl solution to guarantee the pseudo-first-order kinetic condition. Area values as a function of time for the dissociation reactions of Gd(III)-complexes formed with the different stereoisomers of rac-L1 obtained at 25 °C in 1.0 M HCl solution are shown in Figure S48.
In the presence of HCl excess, the decomplexation of Gd(III)-complexes can be treated as a pseudo-first-order process and the reaction rate can be expressed by Equation (S9), where kd is a pseudo-first-order rate constant, [GdL]t and [GdL]tot are the concentrations of the GdL species at time t and the total concentration of the complex, respectively.
The rates of the dissociation reactions have been studied at different concentrations of HCl ([HCl]=0.01 – 1.0 M, 25 °C). The kd values obtained for the Gd(III)-complexes with the different isomers of rac-L1 and rac-L2 ligands as a function of [H^+] are shown in Figures S49 and S50.
The obtained kd pseudo-first order rate constants are directly proportional to the concentration of H^+. The increase in the kd values with increasing concentration of H^+ can be interpreted in terms of the proton assisted dissociation of Gd(III)-complexes. […] The proton assisted dissociation of Gd(III)-complexes might be explained by the equilibrium formation of a protonated *Gd(HL) intermediate (Equation (S11)), which dissociates spontaneously (Equation (12)).
where k0, and k1 = kGdHL×K^HGdHL are the rate constants characterizing the spontaneous and proton-assisted dissociation of Gd(III)-complexes. The protonation constant (K^HGdHL) of Gd(DOTA)-like complexes are very small (Gd(DOTA): K^HGdHL =14).^[22] By considering very low protonation constant of Gd(III)-complexes with A, C and D isomers of rac-L1 and A’, C’ and D’ isomers of rac-L2 ligands (K^HGdHL<<10), the denominator of Equation (S14) (1>> K^HGdHL [H^+]) can be neglected, so Equation (S14) can be simplified in the form of Equation (S15). The k0 and k1 values of the Gd(III) complexes with A, C and D isomers of rac-L1, and A’, C’ and D’ isomers of rac-L2 ligands have been calculated by fitting of the kinetic data (Figures S49 and S50) to Equation (S15).
The k1 rate and logK^HGdHL protonation constants characterizing the acid-catalyzed decomplexation of Gd(III)-complexes formed with the different stereoisomers of rac-L1 and rac-L2 are presented and compared with those of [Gd(PCTA)], [Gd(DOTA)]^-, [Gd(HP-DO3A)] and [Gd(BT-DO3A)] in Table S19.

For data set [4] the following is noted: 0.15 M NaCl, 25 °C; cited from earlier work.

Values joined by “and” are separate entries in the source; they are usually repeats but may differ in a detail not shown here. Equal values may be shown once. Read-outs that look alike come from different tables or passages of the source. Marks after values point to notes of the source that are not given here.

Turning to `O=C([O-])CCC(C(=O)[O-])N1CCN(C(CCC(=O)[O-])C(=O)[O-])Cc2cccc(n2)CN(C(CCC(=O)[O-])C(=O)[O-])CC1.[Gd+3]` (mixture of isomers) [[Gd(rac‐L1)]^3−] [2,2’,2’’-[3,6,9,15-tetraazabicyclo[9.3.1]pentadeca-1(15),11,13-triene-3,6,9-triyl]tris(4-carboxybutanoate)gadolinium], the “^298K r 1 [1.5 T]” value in data set [1] (298 K, 1.5 T, water) came out at 9.4 mM⁻¹ s⁻¹. For the same molecule, in data set [1] (310 K, 1.5 T, water), the “r 1 ^310K [1.5 T]” value was 6.8 mM⁻¹ s⁻¹. The τ R stood at 98 ± 2 ps in data set [1] (Table 2) and 98±2 ps in data set [1] (Table S20, 298 K). In addition, in data set [1] (fixed in the fitting procedure), the ER is reported as 22^b) kJ mol^-1. Further, the q in data set [1] (fixed in the fitting procedure) is given as 2; in data set [1] (fixed in the fitting procedure, listed as [Gd(rac-L1)]^3-) it was 2^b). Moreover, in data set [1] (residence time of coordinated water 1, 298 K), the “τ M1” value amounted to 103 ± 5 ns. Further, in data set [1] (residence time of coordinated water 2, 298 K), the “τ M2” value is reported as 14 ± 2 ns.

With `O=C([O-])CN1CCN(CC(=O)[O-])Cc2cccc(n2)CN(CC(=O)[O-])CC1.[Eu+3]` [[Eu(PCTA)]], in data set [2] (1.0 M KCl), the “K^HGd(HL)” value was 1.72 M⁻¹. Besides, in data set [2] (pH 7.4, 1.0 M KCl), the “k d at pH = 7.4” value is 2.0 × 10^−11 ([Eu(PCTA)]) s^−1 and 2.0×10^-11 s^−1.

Take `O=C(CC[C@H](C(=O)[O-])N1CCN([C@@H](CCC(=O)NCC(O)CO)C(=O)[O-])CCN([C@H](CCC(=O)NCC(O)CO)C(=O)[O-])Cc2cccc(n2)C1)NCC(O)CO.[Gd+3]` (relative stereo) [[Gd(rac-L2)] A’ (RSR/SRS)]: the entries for the “k d at pH = 7.4” value in data set [3] and in data set [3] (listed as RSR/SRS (A′)) were 1.85×10^-12 s^−1 and 1.85 × 10^−12 s^−1, respectively. Also, the k1 entry in data set [3] (25 °C) was “(4.7±0.1) ×10^-5 M^-1s^-1”.

Take `CC(O)CN1CCN(CC(=O)[O-])CCN(CC(=O)[O-])CCN(CC(=O)[O-])CC1.[Gd+3]` (stereo not drawn) [[Gd(HP-DO3A)]]: the k1 is 0.00029 M⁻¹ s⁻¹ in data set [2] (0.15 M NaCl) and 0.00026 M⁻¹ s⁻¹ in data set [2]. For the same molecule, the “k d at pH = 7.4” value is reported as 1.0×10^-11 s^−1 in data set [2] (pH 7.4, 0.1 M NaCl) and 1.2×10^-11 s^−1 in data set [2] (pH 7.4, 0.15 M NaCl).

For `O=C(O)CCC(C(=O)[O-])N1CCN(C(CCC(=O)O)C(=O)[O-])Cc2cccc(n2)CN(C(CCC(=O)O)C(=O)[O-])CC1.[Gd+3]` (racemic) [[Gd(rac-L1)] A (RSR/SRS)], the figures for the “k d at pH = 7.4” value in data set [3] and in data set [3] (listed as RSR/SRS (A)) were 1.84×10^-12 s^−1 and 1.84 × 10^−12 s^−1, respectively. Also, in data set [3] (25 °C), the k1 entry is on record as “(4.6±0.2) ×10^-5 M^-1s^-1”.

Turning to `O=C(O)CCC(C(=O)[O-])N1CCN(C(CCC(=O)O)C(=O)[O-])Cc2cccc(n2)CN(C(CCC(=O)O)C(=O)[O-])CC1.[Gd+3]` (racemic) [[Gd(rac-L1)] B (RSS/SRR)], the “k d at pH = 7.4” value in data set [3] is 1.28×10^-11 s^−1; in data set [3] (listed as RSS/SRR (B)) it was 1.28 × 10^−11 s^−1. The k1 entry in data set [3] (25 °C) is recorded as “(3.2±0.4) ×10^-4 M^-1s^-1”. For the same molecule, the “K^HGd(HL)” value in data set [3] (protonation constant of the *Gd(HL) intermediate, 25 °C) turned out to be 2.0 ± 0.4 M⁻¹.

On to `CC1(N(CC(=O)O)CC(=O)O)CN(CC(=O)O)CCN(CC(=O)O)C1` [AAZTA], for which, in data set [4], the “logK1^H” value is 10.06, the “logK2^H” value is 6.50, the “logK3^H” value is on record as 3.77 and the “logK4^H” value is reported as 2.33. For the same molecule, the “logK5^H” value in data set [4] is reported as 1.51.

Take `O=C(O)CCC(C(=O)[O-])N1CCN(C(CCC(=O)O)C(=O)[O-])Cc2cccc(n2)CN(C(CCC(=O)O)C(=O)[O-])CC1.[Gd+3]` (racemic) [[Gd(rac-L1)] D (RRS/SSR)]: the “k d at pH = 7.4” value in data set [3] was 4.95×10^-13 s^−1; in data set [3] (listed as RRS/SSR (D)), 4.95 × 10^−13 s^−1. Besides, in data set [3] (25 °C), the k1 entry is “(1.2±0.1) ×10^-5 M^-1s^-1”.
